Assay: Crossover PK study: sumatriptan plasma levels (LC/MS/MS) after ID, junctional or SC administration; Tmax, Cmax, AUC, relative F
Assay type: in vivo
Details: Yucatan miniswine, mean; for AUC 0-10 min: Yucatan, minipig, plasma, AUC 10 min.
[1] = 3 × 3 mm × 34 g, 12 mg/ml, 5 minutes metered bolus
[2] = SC, 12 mg/ml (reference condition)

C max (1 × 2 mm × 30 g, 30 mg/ml): 849.333 ng/mL
C max (1 × 3 mm × 30 g, 30 mg/ml): 836.667 ng/mL
C max [1]: 705.833 ng/mL
rel. F 10 min [2]: 100.000%
rel. F Total [2]: 100.000%
AUC 0-10 min (1 × 1.5 mm × 30 g, 0 mg/ml): 84.7 ng·h/mL
AUC 0-10 min (1 × 2 mm × 30 g, 30 mg/ml): 75.2 ng·h/mL
AUC 0-10 min (1 × 3 mm × 30 g, 30 mg/ml): 86.4 ng·h/mL
AUC 0-10 min (3 × 2 mm × 34 g, 30 mg/ml): 69.5 ng·h/mL
AUC 0-10 min [1]: 52.8 ng·h/mL
AUC 0-10 min (3 × 3 mm × 34 g, 30 mg/ml, 2 minute metered bolus): 53.4 ng·h/mL
AUC 0-10 min (iv, 12 mg/ml): 59.8 ng·h/mL
AUC 0-10 min (sc, 12 mg/ml): 45.3 ng·h/mL
SMILES: CNS(=O)(=O)Cc1ccc2[nH]cc(CCN(C)C)c2c1 [sumatriptan, 3-[2-(dimethylamino)ethyl]-N-methyl-indole-5-methanesulfonamide]

Source: patent publication US20050256182A1, “Formulations of anti-pain agents and methods of using the same” (priority 2004, published 2005)
